Reference: ChEMBL document CHEMBL1201862, “PubChem BioAssay data set” (2004)
Calls of active or inactive are those of the source.

Experiments:
[1] = target: T1, Calpain-2 catalytic subunit (Sus scrofa, UniProt P43367); assay: m-calpain protease blockers, concentration series – biochemical, fluorogenic peptide substrate, dose response (AID 1420); format: functional
T1 sequence (P43367 whole entry): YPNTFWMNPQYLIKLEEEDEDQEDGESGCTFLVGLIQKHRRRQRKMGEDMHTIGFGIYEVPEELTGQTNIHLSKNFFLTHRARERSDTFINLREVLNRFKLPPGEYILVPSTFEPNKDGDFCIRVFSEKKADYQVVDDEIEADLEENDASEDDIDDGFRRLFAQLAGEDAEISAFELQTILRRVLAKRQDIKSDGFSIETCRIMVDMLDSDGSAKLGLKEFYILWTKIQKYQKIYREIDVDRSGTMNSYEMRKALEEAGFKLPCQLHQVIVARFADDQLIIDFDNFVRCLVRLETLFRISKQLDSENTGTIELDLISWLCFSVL

[2] = target: Luciferin 4-monooxygenase (Photinus pyralis, UniProt P08659); assay: inhibition of purified Photinus pyralis luciferase – biochemical, luminescence, dose response (AID 1891)
Luciferin 4-monooxygenase, sequence (P08659 whole entry): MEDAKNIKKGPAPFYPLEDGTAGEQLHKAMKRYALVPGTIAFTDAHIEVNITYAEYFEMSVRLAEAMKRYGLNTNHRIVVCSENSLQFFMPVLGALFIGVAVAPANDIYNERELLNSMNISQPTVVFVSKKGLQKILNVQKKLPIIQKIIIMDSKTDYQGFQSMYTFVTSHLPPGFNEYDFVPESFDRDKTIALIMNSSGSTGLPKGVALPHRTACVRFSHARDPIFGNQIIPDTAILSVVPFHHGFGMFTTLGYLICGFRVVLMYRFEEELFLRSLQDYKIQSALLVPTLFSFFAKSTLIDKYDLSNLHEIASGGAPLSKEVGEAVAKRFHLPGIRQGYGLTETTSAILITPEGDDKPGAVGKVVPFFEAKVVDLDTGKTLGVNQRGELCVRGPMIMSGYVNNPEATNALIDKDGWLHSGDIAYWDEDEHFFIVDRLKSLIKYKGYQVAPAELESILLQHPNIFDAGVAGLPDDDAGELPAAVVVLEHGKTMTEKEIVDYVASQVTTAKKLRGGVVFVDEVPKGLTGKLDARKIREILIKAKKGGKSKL

[3] = Luminescence Cell-Based Dose Confirmation HTS to Identify Inhibitors of Platelet Dense Granule Release. [Related pubchem assays: 1663 (Primary HTS), 1678 (Summary of Project)]; format: functional
[4] = target: Heat shock protein HSP 90-alpha (Homo sapiens, UniProt P07900); format: functional, organism-based
[5] = P. falciparum Dd2 growth inhibitors, dose response, SYBR Green, cherry-picked samples (AID 1159567); format: functional, cell-based
[6] = microbe, parasite or virus in culture; format: functional; conditions: Mycobacterium tuberculosis
[7] = target: T2, Ubiquitin-conjugating enzyme E2 N (Homo sapiens, UniProt P61088); format: functional;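 also: Dose-response confirmation in a TR-FRET assay detecting UBC13-driven polyubiquitin chain formation, inhibition measured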
T2 sequence (P61088 whole entry): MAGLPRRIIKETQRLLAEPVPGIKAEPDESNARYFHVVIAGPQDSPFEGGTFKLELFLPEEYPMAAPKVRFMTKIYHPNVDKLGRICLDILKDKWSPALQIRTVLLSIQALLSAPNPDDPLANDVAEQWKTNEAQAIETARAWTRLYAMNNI

[8] = test system: H9c2; assay: cells; format: functional, cell-based; conditions: Rattus norvegicus, H9c2, Myocardium;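 also: confirmatory concentration-response retest of ultra-high-throughput screening hits for modulation of myocardial damage; cell death induced by hydrogen peroxide oxidative stress; compound pretreatment for 60 min then peroxide exposure for 2 h; potency is for protecting the cells against peroxide damage rather than for killing them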
[9] = test system: Streptococcus sp. 'group A'; assay: Streptococcus pyogenes SK(-)GAS viability under kanamycin – luminescence, BacTiterGlo, confirmation, counter-screen for streptokinase expression inhibitor project, dose response (AID 1900); format: functional, organism-based
[10] = test system: Streptococcus; assay: GAS UMAA2166 growth inhibition – luminescence, BacTiterGlo, counter-screen for streptokinase expression inhibitor project, dose response (AID 1915); format: functional, organism-based;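 also: potency for reduction of bacterial viability or growth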
[11] = Luminescence Cell-Based Dose Retest to Confirm Inhibitors of Cancer Stem Cells. [Related pubchem assays (depositor defined):AID2717, AID2721]; format: functional; conditions: Homo sapiens
[12] = luciferase reporter signal suppression in cells – H4 neuroglioma cells, luminescence, dose response (AID 1990); format: functional, cell-based
[13] = Luminescence Cell-Based Dose Response HTS to Identify Inhibitors of 5'UTR Stem-Loop Driven Prion Protein mRNA Translation in H4 Neuroglioblastoma Cells. [Related pubchem assays: 1827 (Project Summary), 1813 (Primary HTS)]; format: functional
[14] = alpha-synuclein stem-loop luciferase translation blockers – H4 neuroglioma cells, luminescence, confirmation (AID 1988); format: functional, cell-based
[15] = target: T3, Heat shock factor protein 1 (Mus musculus, UniProt P38532); assay: enhancement of HSF1-driven luciferase signal – cell-based, NIH3T3, luminescence, dose retest, confirmation (AID 435004); format: functional;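 also: stress induced by proteasome inhibitor MG132 added 30 min after compound; luciferase reporter driven by HSF1 response element in NIH3T3 cells; actives raise luminescence as potentiators of the MG132 stress response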
T3 sequence (P38532 whole entry): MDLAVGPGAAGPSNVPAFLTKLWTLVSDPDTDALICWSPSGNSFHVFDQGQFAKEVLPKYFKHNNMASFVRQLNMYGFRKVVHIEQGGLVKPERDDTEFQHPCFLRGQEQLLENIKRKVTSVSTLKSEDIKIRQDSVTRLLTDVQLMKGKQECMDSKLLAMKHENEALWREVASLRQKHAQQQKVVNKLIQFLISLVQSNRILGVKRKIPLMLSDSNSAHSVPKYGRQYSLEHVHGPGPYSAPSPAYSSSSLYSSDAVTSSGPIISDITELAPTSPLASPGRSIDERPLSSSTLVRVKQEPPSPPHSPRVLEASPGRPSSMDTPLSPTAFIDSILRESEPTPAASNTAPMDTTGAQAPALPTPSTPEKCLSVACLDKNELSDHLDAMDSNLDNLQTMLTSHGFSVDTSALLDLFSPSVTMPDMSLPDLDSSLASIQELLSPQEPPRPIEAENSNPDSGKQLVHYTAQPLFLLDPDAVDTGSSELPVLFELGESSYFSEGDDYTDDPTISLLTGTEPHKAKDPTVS

[16] = target: Fatty acid synthase (Homo sapiens, UniProt P49327); assay: inhibition of human FAS-TE enzyme activity – biochemical, kinetic fluorescence intensity, dose response (AID 624326); format: functional;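 also: rate of fluorescence rise from hydrolysis of a fluorogenic O-methyl fluorescein ester substrate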
Fatty acid synthase, sequence (P49327 whole entry): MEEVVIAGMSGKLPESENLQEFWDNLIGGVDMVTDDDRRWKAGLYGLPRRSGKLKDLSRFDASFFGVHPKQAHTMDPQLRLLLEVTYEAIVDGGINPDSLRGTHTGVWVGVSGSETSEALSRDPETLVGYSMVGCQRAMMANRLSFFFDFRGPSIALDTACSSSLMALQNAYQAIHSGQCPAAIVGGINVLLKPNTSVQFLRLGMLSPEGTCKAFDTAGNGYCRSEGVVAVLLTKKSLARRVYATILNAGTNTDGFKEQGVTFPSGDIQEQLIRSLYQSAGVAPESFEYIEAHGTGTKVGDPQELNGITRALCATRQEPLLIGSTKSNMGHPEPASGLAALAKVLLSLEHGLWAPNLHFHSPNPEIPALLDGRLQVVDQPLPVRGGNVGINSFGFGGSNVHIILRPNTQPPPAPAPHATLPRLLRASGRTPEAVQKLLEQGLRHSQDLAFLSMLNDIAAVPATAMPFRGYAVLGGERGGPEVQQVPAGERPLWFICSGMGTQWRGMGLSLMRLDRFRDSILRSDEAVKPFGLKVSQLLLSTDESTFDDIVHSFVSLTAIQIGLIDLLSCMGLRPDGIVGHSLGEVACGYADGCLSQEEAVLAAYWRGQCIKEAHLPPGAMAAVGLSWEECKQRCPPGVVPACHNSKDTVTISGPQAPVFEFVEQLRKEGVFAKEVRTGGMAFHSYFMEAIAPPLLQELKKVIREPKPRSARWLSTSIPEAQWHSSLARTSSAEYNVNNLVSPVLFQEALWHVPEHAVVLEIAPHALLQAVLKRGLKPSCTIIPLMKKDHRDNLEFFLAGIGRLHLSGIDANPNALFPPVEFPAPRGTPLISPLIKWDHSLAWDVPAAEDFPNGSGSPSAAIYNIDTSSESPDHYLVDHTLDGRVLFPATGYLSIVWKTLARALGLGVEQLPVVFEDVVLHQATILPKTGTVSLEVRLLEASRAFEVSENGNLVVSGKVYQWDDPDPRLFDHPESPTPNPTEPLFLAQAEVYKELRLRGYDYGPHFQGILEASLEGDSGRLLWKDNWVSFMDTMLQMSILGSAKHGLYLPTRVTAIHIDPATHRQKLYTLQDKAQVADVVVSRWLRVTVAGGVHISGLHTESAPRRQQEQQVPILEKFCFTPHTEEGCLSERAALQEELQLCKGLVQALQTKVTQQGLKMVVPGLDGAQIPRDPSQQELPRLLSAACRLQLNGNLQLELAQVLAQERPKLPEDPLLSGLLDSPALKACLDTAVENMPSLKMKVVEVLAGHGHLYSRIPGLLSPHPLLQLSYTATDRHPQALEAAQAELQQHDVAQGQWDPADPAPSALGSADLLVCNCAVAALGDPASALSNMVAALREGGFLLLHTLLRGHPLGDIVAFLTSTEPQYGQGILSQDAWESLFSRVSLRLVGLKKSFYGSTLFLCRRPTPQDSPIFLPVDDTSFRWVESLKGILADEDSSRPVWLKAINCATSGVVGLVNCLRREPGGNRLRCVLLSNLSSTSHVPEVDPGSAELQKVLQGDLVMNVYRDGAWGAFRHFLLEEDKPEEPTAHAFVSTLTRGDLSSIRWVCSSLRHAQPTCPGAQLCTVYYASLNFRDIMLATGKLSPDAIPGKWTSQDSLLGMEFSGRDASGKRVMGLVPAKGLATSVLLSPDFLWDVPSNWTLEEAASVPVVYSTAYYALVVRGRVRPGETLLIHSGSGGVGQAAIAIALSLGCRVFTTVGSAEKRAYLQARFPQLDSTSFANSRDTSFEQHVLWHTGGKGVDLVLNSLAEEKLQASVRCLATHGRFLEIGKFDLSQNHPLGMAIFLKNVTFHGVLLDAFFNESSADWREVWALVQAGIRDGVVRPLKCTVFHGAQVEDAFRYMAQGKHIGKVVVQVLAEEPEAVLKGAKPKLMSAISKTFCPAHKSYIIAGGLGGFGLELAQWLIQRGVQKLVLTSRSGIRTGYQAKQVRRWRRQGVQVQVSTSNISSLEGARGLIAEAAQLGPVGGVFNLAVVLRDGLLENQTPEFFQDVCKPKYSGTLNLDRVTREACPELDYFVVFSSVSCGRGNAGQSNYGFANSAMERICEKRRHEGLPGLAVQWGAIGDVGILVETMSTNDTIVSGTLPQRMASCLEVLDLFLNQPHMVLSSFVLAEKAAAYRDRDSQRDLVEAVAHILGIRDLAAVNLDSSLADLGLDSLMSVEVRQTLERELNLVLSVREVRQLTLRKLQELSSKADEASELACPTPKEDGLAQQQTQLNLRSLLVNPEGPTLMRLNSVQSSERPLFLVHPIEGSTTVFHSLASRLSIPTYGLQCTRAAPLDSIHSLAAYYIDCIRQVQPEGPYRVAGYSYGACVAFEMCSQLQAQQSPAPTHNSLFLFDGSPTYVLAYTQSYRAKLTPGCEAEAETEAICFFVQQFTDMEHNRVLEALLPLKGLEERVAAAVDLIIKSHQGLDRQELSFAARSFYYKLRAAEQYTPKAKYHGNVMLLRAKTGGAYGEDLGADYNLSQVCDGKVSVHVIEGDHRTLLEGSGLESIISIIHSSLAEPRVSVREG

[17] = target: Cytochrome P450 2C19 (Homo sapiens, UniProt P33261); assay: Cytochrome panel assay with activity outcomes. Panel member name: p450-cyp2c19 Compounds with AC50 equal or less than 10 uM are considered active; format: functional; conditions: read-out: AC50
Cytochrome P450 2C19, sequence (P33261 whole entry): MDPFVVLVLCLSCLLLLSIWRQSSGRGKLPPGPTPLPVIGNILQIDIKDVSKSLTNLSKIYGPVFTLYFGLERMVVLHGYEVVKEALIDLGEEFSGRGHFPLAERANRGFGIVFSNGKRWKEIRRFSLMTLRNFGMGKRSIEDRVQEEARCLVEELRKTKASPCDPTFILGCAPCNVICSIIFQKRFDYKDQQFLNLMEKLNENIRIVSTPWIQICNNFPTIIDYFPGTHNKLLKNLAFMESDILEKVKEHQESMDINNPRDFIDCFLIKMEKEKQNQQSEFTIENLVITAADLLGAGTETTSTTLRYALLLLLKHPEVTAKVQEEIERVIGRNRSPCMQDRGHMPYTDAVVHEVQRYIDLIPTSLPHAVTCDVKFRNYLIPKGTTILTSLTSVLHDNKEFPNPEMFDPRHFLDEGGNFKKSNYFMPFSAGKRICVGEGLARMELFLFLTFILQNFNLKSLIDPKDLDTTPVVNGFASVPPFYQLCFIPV

[18] = target: Cytochrome P450 2D6 (Homo sapiens, UniProt P10635);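 also: CYP2D6 member of a cytochrome P450 panel assay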
Cytochrome P450 2D6, sequence (P10635 whole entry): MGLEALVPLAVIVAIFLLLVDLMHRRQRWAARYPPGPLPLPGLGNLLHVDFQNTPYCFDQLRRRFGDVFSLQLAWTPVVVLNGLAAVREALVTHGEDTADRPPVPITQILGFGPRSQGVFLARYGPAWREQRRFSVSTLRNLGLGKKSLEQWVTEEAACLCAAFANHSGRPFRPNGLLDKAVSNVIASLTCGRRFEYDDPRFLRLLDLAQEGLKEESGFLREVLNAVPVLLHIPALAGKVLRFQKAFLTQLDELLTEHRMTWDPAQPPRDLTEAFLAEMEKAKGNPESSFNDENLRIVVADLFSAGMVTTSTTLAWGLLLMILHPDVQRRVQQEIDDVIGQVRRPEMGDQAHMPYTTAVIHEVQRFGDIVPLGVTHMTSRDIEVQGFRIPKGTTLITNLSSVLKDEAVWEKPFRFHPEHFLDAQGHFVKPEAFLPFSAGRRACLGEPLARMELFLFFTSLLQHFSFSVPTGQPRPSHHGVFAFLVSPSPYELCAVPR

[19] = target: T4, Cytochrome P450 1A2 (Homo sapiens, UniProt P05177);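 also: PubChem cytochrome P450 panel assay, CYP1A2 panel member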
T4 sequence (P05177 whole entry): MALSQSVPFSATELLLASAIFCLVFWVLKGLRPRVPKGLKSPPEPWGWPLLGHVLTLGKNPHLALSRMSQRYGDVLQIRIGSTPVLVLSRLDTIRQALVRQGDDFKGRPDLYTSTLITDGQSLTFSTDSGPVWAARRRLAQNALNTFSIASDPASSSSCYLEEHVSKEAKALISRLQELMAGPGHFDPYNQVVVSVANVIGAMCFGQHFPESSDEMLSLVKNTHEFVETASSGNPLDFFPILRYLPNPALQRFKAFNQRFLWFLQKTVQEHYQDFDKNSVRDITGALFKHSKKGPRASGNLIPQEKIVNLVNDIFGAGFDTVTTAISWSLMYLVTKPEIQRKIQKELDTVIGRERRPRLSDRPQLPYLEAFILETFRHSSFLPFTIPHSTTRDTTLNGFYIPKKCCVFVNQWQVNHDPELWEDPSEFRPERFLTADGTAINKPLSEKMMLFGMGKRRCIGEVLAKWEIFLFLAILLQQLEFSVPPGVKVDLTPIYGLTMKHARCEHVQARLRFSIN

[20] = target: Cytochrome P450 3A4 (Homo sapiens, UniProt P08684);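 also: CYP3A4 tested as one member of a cytochrome P450 panel screen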
Cytochrome P450 3A4, sequence (P08684 whole entry): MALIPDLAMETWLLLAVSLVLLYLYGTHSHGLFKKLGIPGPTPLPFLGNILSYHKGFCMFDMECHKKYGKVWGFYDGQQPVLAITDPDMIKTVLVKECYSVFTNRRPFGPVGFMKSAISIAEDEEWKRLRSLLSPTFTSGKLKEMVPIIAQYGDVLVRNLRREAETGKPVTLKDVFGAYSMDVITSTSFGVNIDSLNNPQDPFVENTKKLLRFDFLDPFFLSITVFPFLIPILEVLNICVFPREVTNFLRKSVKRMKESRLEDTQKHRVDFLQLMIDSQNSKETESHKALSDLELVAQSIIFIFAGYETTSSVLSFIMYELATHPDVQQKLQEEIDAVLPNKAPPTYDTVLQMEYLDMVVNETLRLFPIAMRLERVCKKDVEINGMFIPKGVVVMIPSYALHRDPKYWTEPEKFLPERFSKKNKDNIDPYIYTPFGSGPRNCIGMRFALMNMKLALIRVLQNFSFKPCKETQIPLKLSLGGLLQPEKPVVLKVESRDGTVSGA

[21] = target: Cytochrome P450 2C9 (Homo sapiens, UniProt P11712)
Cytochrome P450 2C9, sequence (P11712 whole entry): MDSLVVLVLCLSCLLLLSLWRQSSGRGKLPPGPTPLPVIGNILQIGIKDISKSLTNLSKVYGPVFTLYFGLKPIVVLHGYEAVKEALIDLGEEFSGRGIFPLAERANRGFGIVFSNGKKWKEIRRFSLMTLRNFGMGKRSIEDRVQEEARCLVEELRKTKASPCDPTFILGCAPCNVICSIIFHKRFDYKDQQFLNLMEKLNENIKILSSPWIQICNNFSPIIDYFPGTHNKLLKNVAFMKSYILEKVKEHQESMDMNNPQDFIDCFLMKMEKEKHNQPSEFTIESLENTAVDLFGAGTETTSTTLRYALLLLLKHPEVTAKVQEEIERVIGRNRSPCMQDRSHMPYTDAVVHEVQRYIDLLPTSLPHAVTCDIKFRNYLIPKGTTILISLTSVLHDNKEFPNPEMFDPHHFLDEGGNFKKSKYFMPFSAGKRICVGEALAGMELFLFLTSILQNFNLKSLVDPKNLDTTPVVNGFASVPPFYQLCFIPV

CC1CCN(c2nc3nonc3nc2Nc2ccc(F)cc2)CC1
IC50 [1]: 11.7 µM (not active)

COc1ccc(CCNC(=O)C[S+]([O-])Cc2nc(-c3ccc(C)cc3)oc2C)cc1OC (configuration not stated)
EC50 [2]: > 112 µM (not active) | EC50 [3]: > 112 µM (not active)

O=C(NCC1CCCO1)c1cc([N+](=O)[O-])ccc1N1CCC(Cc2ccccc2)CC1 (configuration not stated)
AC50 [4]: 4.28 µM (active)

C[C@@H]1CN([C@@H](C)CO)C(=O)c2c(c3ccccc3n2C)-c2ccccc2CO[C@H]1CN(C)Cc1cccc(C(=O)Nc2ccccc2N)c1
AC50 [5]: 2.81 µM (active)

COc1ccccc1N(C)S(=O)(=O)c1ccc(C(=O)Nc2ccc3nc(C)sc3c2)cc1
CC50 [6]: 38.1 µM (active)

CCC(=O)N(C)CCc1cc2c(c(OC)c1/C=N/NC(=O)c1ccccc1O)OCO2
EC50 [2]: > 112 µM (not active) | EC50 [3]: > 112 µM (not active)

O=C(CSc1ccc(-c2ccco2)nn1)c1ccccc1
EC50 [2]: > 112 µM (not active) | EC50 [3]: > 112 µM (not active)

CN(C)S(=O)(=O)c1ccc(Cl)c(NC(=O)CSc2nc3ccccc3c(=O)n2CCCN2CCOCC2)c1
EC50 [2]: > 112 µM (not active) | EC50 [3]: 17.8 µM (active)

CN(CC(=O)Nc1ccccc1Br)C(=O)C(Cc1ccccc1)NC(=O)c1ccccc1 (configuration not stated)
EC50 [2]: > 112 µM (not active) | EC50 [3]: > 112 µM (not active)

C[C@H]1CN([C@@H](C)CO)C(=O)c2c(c3ccccc3n2C)-c2ccccc2CO[C@@H]1CN(C)Cc1cccc(O)c1
AC50 [5]: 3.24 µM (active)

Cc1ccc(C(C(=O)NCC2CCCO2)N(C(=O)c2snc(C(N)=O)c2N)c2ccc(C)c(C)c2)o1 (configuration not stated)
IC50 [7]: > 20 µM (inactive)

CSCCC(NC(=O)c1ccccc1Cl)C(=O)NNC(=O)c1csc(N2CCOCC2)n1 (configuration not stated)
IC50 [7]: > 20 µM (inactive)

CC(C)n1nc(C(=O)OCC(=O)c2c[nH]c3ccccc23)c2ccccc2c1=O
IC50 [1]: 0.91 µM (not active) | IC50 [8]: 27.3 µM (active)

Cc1ccc(C2SCCN2C(=O)c2ccc([N+](=O)[O-])cc2)cc1 (configuration not stated)
EC50 [2]: > 112 µM (not active) | EC50 [3]: > 112 µM (not active)

NC(=O)c1cccc(Nc2nc(C(N)COCc3ccccc3)cs2)n1 (configuration not stated)
IC50 [8]: 19.8 µM (active)

Cn1cnc([N+](=O)[O-])c1Nc1ccccc1O
EC50 [2]: > 112 µM (not active) | EC50 [3]: > 112 µM (not active)

Oc1ccccc1C1=NN(c2ccccc2)C(c2ccccc2)C1 (configuration not stated)
EC50 [9]: 4.06 µM (active) | EC50 [10]: 6.93 µM (active) | AC50 [11]: 1.29 µM (active) | AC50 [4]: 4.3 µM (active)

COc1ccc(/N=C/c2cc(Cc3ccccc3Cl)cc([N+](=O)[O-])c2O)cc1OC
AC50 [4]: 1.6 µM (active)

CCc1c(C2(O)CCCCC2)[nH]c2ccc(C(F)(F)F)cc12
EC50 [12]: 60.5 µM (active) | EC50 [13]: > 120 µM (not active) | EC50 [14]: 8.44 µM (active) | CC50 [6]: 27.1 µM (active) | AC50 [11]: 2.64 µM (active)

Cc1c(CCC(=O)NCCCn2ccnc2)c(=O)oc2c(C)c3occ(C(C)(C)C)c3cc12
CC50 [6]: 22.1 µM (active)

C#CCNC(=O)C1=C[C@H](c2cn(C(C)=O)c3ccccc23)C[C@H](OCc2ccc(CO)cc2)O1
IC50 [7]: > 20 µM (inactive)

Cc1ccc(S(=O)(=O)N(C)c2ccc(C)c([N+](=O)[O-])c2)cc1
IC50 [1]: 18.8 µM (not active) | EC50 [15]: > 260 µM (inactive)

O=[N+]([O-])c1cc(-n2cnnn2)ccc1N1CCC(Cc2ccccc2)CC1
AC50 [4]: 4.38 µM (active)

Cc1cc(C(=O)N/N=C/c2c(CO)cnc(C)c2O)c2ccccc2n1
IC50 [8]: > 79 µM (inactive)

CCOC(=O)C1CCN(C(c2cc3c(C)ccc(C)c3nc2O)c2nnnn2C2CCCCC2)CC1 (configuration not stated)
IC50 [8]: > 79 µM (inactive)

FC(F)(F)c1nnc2ccc(NCc3ccccc3)nn12
IC50 [1]: 2.23 µM (active)

CC(C)NC(=O)N1[C@H](C#N)[C@H](c2ccccc2-c2ccc(F)cc2)[C@@H]1CO
AC50 [5]: 3.57 µM (active)

CCCC#Cc1ccc(CC[C@H]2O[C@H]3CC[C@H](CO)O[C@H]3C[C@@H]2n2cc(C(C)(C)O)nn2)cc1
AC50 [5]: 16.8 µM (active)

O=C(COC(=O)Cc1nnc(O)c2ccccc12)Nc1ccc(Cl)cn1
IC50 [8]: > 79 µM (inactive)

CN(C(=O)Nc1ccc(Cl)cc1Cl)[C@H]1c2cc(Br)ccc2OC[C@H]1CO
IC50 [16]: 11.3 µM (active)

COCCNC(=O)CSc1nc(-c2ccc(OC)c(OC)c2)cc(C(F)(F)F)n1
EC50 [2]: > 112 µM (not active) | EC50 [3]: > 112 µM (not active)

O=C(CCc1nc(O)c2ccccc2n1)NNC(=O)COc1cccc(F)c1
IC50 [8]: > 79 µM (inactive)

Cc1ccc(-c2noc(CCC(=O)Nc3ccccc3N3CCN(C)CC3)n2)cc1
IC50 [7]: > 20 µM (inactive)

COC(=O)[C@@]1(Cc2ccccc2)[C@H]2c3cc(C(=O)N4CCCC4)n(CCN4CNCC4=O)c3C[C@H]2CN1C(=O)c1ccccc1
AC50 [17]: 39.8 µM (inconclusive) | AC50 [18]: 39.8 µM (inconclusive) | AC50 [19]: 25.1 µM (inconclusive) | AC50 [20]: 1.58 µM (inconclusive)

O=C(Nc1ccccc1)c1nc[nH]c1C(=O)NCCCCNC(=O)c1nc[nH]c1C(=O)Nc1ccccc1
IC50 [8]: > 79 µM (inactive)

CCOC(=O)c1ccc(/N=C2/S/C(=C\c3cc(C)n(-c4cccnc4)c3C)C(=O)N2C)cc1
CC50 [6]: > 40 µM (active)

CC(/C=C/c1ccc(Cl)o1)=C\C(=O)O
EC50 [2]: > 112 µM (not active) | EC50 [3]: > 112 µM (not active)

N#Cc1cccc(-c2ccc([C@@H]3[C@@H]4CN(C(=O)C5CCC5)C[C@H]3N4)cc2)c1
AC50 [5]: 3.71 µM (active)

CCCc1nc2oc(C(=O)OCC)c(N)c2c2c1COC(C)(C)C2
CC50 [6]: > 40 µM (active)

Oc1nc(NCc2ccccc2)nc2c1CCCC2
IC50 [8]: 52.3 µM (inactive)

N#Cc1cccc(-c2nc3cnc(Nc4ccccc4)nc3n(C[C@H]3CCCO3)c2=O)c1
AC50 [18]: 1 µM (inconclusive) | AC50 [19]: 2 µM (inconclusive) | AC50 [21]: 10 µM (inconclusive)

CC(C)C(=O)Nc1ncc(Cc2ccc(Cl)cc2)s1
IC50 [1]: 5.63 µM (not active)

CCCCNC(=S)N(C)/N=C/c1ccc2c(c1)OCO2
CC50 [6]: > 40 µM (active) | AC50 [11]: 2.04 µM (active)
